# Measurements from US12570642B2, “GLP-IR modulating compounds” (Gilead Sciences, Inc., priority 2021, dated 2026).
# Molecular target: GLP-1R (Homo sapiens, UniProt P43220)
# Assay: GLP-1R Activation - cAMP Assay
# Type: cell-based
# Details: cAMP increase in CHO cells stably expressing GLP-1R; each compound run on one of the two cAMP assays (Assay 1 or Assay 2, not specified)
# Procedure, shortened: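 cAMP rise read by HTRF after 30 min agonist exposure (10-point titration, 37 °C) in HBSS/20 mM Hepes/0.1% BSA, following 1 h pre-incubation. Cells: stable GLP-1R CHO line, 1,000/well, seeded overnight. Sigmoidal fit of response vs log concentration gives EC50.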
# Chain of GLP-1R (P43220 24-463): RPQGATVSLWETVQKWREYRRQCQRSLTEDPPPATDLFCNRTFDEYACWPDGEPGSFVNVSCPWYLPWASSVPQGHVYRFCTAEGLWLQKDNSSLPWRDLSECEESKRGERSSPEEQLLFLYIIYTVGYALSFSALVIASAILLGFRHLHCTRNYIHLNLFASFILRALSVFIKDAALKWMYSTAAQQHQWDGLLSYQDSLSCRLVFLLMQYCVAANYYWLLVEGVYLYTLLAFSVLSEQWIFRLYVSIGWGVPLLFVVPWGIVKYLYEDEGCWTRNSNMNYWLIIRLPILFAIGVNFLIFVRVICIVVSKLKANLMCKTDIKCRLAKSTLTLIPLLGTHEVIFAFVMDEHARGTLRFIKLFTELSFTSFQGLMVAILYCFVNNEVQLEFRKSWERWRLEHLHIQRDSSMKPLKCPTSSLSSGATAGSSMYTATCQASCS
row,Compound,EC50
1,"CO[C@H](C)Cn1c(Cc2cc(F)c(-c3cccc(OCc4ccc(C#N)cc4F)n3)cc2F)nc2c(F)cc(C(=O)O)cc21 [Example 355, (R)-2-(4-(6-((4-cyano-2-fluorobenzyl)oxy)pyridin-2-yl)-2,5-difluorobenzyl)-4-fluoro-1-(2-methoxypropyl)-1H-benzo[d]imidazole-6-carboxylic acid]",1.21 nM
2,"CC1(C)COC[C@H]1n1c(Cc2c(F)cc(-c3cccc(OCc4ccc(C#N)cc4)n3)cc2F)nc2ccc(C(=O)O)cc21 [Example 362, (S)-2-(4-(6-((4-cyanobenzyl)oxy)pyridin-2-yl)-2,6-difluorobenzyl)-1-(4,4-dimethyltetrahydrofuran-3-yl)-1H-benzo[d]imidazole-6-carboxylic acid]",0.266 nM
3,"CC1(C)COC[C@H]1n1c(Cc2cc(F)c(-c3cccc(OCc4ccccc4)n3)cc2F)nc2ccc(C(=O)O)cc21 [Example 363, (S)-2-(4-(6-(benzyloxy)pyridin-2-yl)-2,5-difluorobenzyl)-1-(4,4-dimethyltetrahydrofuran-3-yl)-1H-benzo[d]imidazole-6-carboxylic acid]",0.369 nM
4,"COCCn1c(Cc2cc(F)c(-c3ccc(F)c(OCc4ccc(C#N)cc4)n3)cc2F)nc2ccc(C(=O)O)c(F)c21 [Example 366, 2-(4-(6-((4-cyanobenzyl)oxy)-5-fluoropyridin-2-yl)-2,5-difluorobenzyl)-7-fluoro-1-(2-methoxyethyl)-1H-benzo[d]imidazole-6-carboxylic acid]",1.17 nM
5,"CC1(C)COC[C@H]1n1c(Cc2cc(F)c(-c3cccc(OCc4ccc(Cl)cc4)n3)cc2F)nc2c(F)cc(C(=O)O)cc21 [Example 367, (S)-2-(4-(6-((4-chlorobenzyl)oxy)pyridin-2-yl)-2,5-difluorobenzyl)-1-(4,4-dimethyltetrahydrofuran-3-yl)-4-fluoro-1H-benzo[d]imidazole-6-carboxylic acid]",0.274 nM
6,"CO[C@H](C)Cn1c(Cc2cc(F)c(-c3ccc(F)c(OCc4ccc(C#N)cc4F)n3)cc2F)nc2c(F)cc(C(=O)O)cc21 [Example 368, (R)-2-(4-(6-((4-cyano-2-fluorobenzyl)oxy)-5-fluoropyridin-2-yl)-2,5-difluorobenzyl)-4-fluoro-1-(2-methoxypropyl)-1H-benzo[d]imidazole-6-carboxylic acid]",0.562 nM
7,"CC1(C)COC[C@H]1n1c(Cc2ccc(-c3ccc(F)c(OCc4ccc(C#N)cc4F)n3)c(F)c2)nc2ccc(C(=O)O)cc21 [Example 369, (S)-2-(4-(6-((4-cyano-2-fluorobenzyl)oxy)-5-fluoropyridin-2-yl)-3-fluorobenzyl)-1-(4,4-dimethyltetrahydrofuran-3-yl)-1H-benzo[d]imidazole-6-carboxylic acid]",0.364 nM
8,"CC1(C)COC[C@H]1n1c(Cc2ccc(-c3cccc(OCc4ccc(C#N)cc4)n3)cc2F)nc2ccc(C(=O)O)cc21 [Example 373, (S)-2-(4-(6-((4-cyanobenzyl)oxy)pyridin-2-yl)-2-fluorobenzyl)-1-(4,4-dimethyltetrahydrofuran-3-yl)-1H-benzo[d]imidazole-6-carboxylic acid]",0.294 nM
9,"COCCn1c(Cc2cc(F)c(-c3cccc(OCc4ccc(-n5ccnn5)cc4F)n3)cc2F)nc2ccc(C(=O)O)c(F)c21 [Example 374, 2-(2,5-difluoro-4-(6-((2-fluoro-4-(1H-1,2,3-triazol-1-yl)benzyl)oxy)pyridin-2-yl)benzyl)-7-fluoro-1-(2-methoxyethyl)-1H-benzo[d]imidazole-6-carboxylic acid]",0.571 nM
10,"COCCn1c(Cc2cc(F)c(-c3cccc(OCc4ccc(C#N)cc4)n3)cc2F)nc2ccc(C(=O)O)c(F)c21 [Example 375, 2-(4-(6-((4-cyanobenzyl)oxy)pyridin-2-yl)-2,5-difluorobenzyl)-7-fluoro-1-(2-methoxyethyl)-1H-benzo[d]imidazole-6-carboxylic acid]",0.272 nM
11,"COCCn1c(Cc2c(F)cc(-c3cccc(OCc4ccc(C#N)cc4)n3)c(F)c2F)nc2c(F)cc(C(=O)O)cc21 [Example 378, 2-(4-(6-((4-cyanobenzyl)oxy)pyridin-2-yl)-2,3,6-trifluorobenzyl)-4-fluoro-1-(2-methoxyethyl)-1H-benzo[d]imidazole-6-carboxylic acid]",0.321 nM
12,"CO[C@H](C)Cn1c(Cc2cc(F)c(-c3cccc(OCc4ccc(C#N)cc4)n3)cc2F)nc2c(F)cc(C(=O)O)cc21 [Example 381, (R)-2-(4-(6-((4-cyanobenzyl)oxy)pyridin-2-yl)-2,5-difluorobenzyl)-4-fluoro-1-(2-methoxypropyl)-1H-benzo[d]imidazole-6-carboxylic acid]",0.267 nM
13,"COCCn1c(Cc2cc(F)c(-c3cccc(OCc4ccc(C#N)cc4)n3)cc2F)nc2c(F)cc(C(=O)O)cc21 [Example 382, 2-(4-(6-((4-cyanobenzyl)oxy)pyridin-2-yl)-2,5-difluorobenzyl)-4-fluoro-1-(2-methoxyethyl)-1H-benzo[d]imidazole-6-carboxylic acid]",0.604 nM

# Now those with a lower EC50, led by results:
row,EC50,Compound
1,0.205 nM,"CC1(C)COCC1n1c(Cc2ccc(-c3cccc(OCc4ccc(C#N)cc4F)n3)cc2F)nc2ccc(C(=O)O)cc21 (centres unmarked) [Example 384, 2-(4-(6-((4-cyano-2-fluorobenzyl)oxy)pyridin-2-yl)-2-fluorobenzyl)-1-(4,4-dimethyltetrahydrofuran-3-yl)-1H-benzo[d]imidazole-6-carboxylic acid]"
2,0.188 nM,"COCCn1c(Cc2c(F)cc(-c3cccc(OCc4ccc(Cl)cc4)n3)c(F)c2F)nc2c(F)cc(C(=O)O)cc21 [Example 377, 2-(4-(6-((4-chlorobenzyl)oxy)pyridin-2-yl)-2,3,6-trifluorobenzyl)-4-fluoro-1-(2-methoxyethyl)-1H-benzo[d]imidazole-6-carboxylic acid]"
3,0.171 nM,"CC1(C)COC[C@H]1n1c(Cc2cc(F)c(-c3cccc(OCc4ccc(C(F)F)cc4)n3)cc2F)nc2ccc(C(=O)O)cc21 [Example 357, (S)-2-(4-(6-((4-(difluoromethyl)benzyl)oxy)pyridin-2-yl)-2,5-difluorobenzyl)-1-(4,4-dimethyltetrahydrofuran-3-yl)-1H-benzo[d]imidazole-6-carboxylic acid]"
4,0.163 nM,"CC1(C)COC[C@H]1n1c(Cc2ccc(-c3cccc(OCc4ccc(C#N)cc4)n3)cc2F)nc2c(F)cc(C(=O)O)cc21 [Example 372, (S)-2-(4-(6-((4-cyanobenzyl)oxy)pyridin-2-yl)-2-fluorobenzyl)-1-(4,4-dimethyltetrahydrofuran-3-yl)-4-fluoro-1H-benzo[d]imidazole-6-carboxylic acid]"
5,0.158 nM,"CC1(C)COC[C@H]1n1c(Cc2ccc(-c3nc(OCc4ccc(C#N)cc4F)ccc3F)cc2F)nc2ccc(C(=O)O)cc21 [Example 364, (S)-2-(4-(6-((4-cyano-2-fluorobenzyl)oxy)-3-fluoropyridin-2-yl)-2-fluorobenzyl)-1-(4,4-dimethyltetrahydrofuran-3-yl)-1H-benzo[d]imidazole-6-carboxylic acid]"
6,0.131 nM,"Cc1ccc(COc2cccc(-c3cc(F)c(Cc4nc5ccc(C(=O)O)cc5n4[C@@H]4COCC4(C)C)cc3F)n2)cc1 [Example 361, (S)-2-(2,5-difluoro-4-(6-((4-methylbenzyl)oxy)pyridin-2-yl)benzyl)-1-(4,4-dimethyltetrahydrofuran-3-yl)-1H-benzo[d]imidazole-6-carboxylic acid]"
7,0.127 nM,"CC1(C)COC[C@H]1n1c(Cc2ccc(-c3cccc(OCc4ccc(Cl)cc4)n3)cc2F)nc2ccc(C(=O)O)cc21 [Example 371, (S)-2-(4-(6-((4-chlorobenzyl)oxy)pyridin-2-yl)-2-fluorobenzyl)-1-(4,4-dimethyltetrahydrofuran-3-yl)-1H-benzo[d]imidazole-6-carboxylic acid]"
8,0.124 nM,"CC1(C)COC[C@H]1n1c(Cc2cc(F)c(-c3cccc(OCc4ccc(C(F)(F)F)cc4)n3)cc2F)nc2ccc(C(=O)O)cc21 [Example 358, (S)-2-(2,5-difluoro-4-(6-((4-(trifluoromethyl)benzyl)oxy)pyridin-2-yl)benzyl)-1-(4,4-dimethyltetrahydrofuran-3-yl)-1H-benzo[d]imidazole-6-carboxylic acid]"
9,0.124 nM,"CC1(C)COC[C@H]1n1c(Cc2cc(F)c(-c3nc(OCc4ccc(C#N)cc4F)ccc3F)cc2F)nc2c(F)cc(C(=O)O)cc21 [Example 365, (S)-2-(4-(6-((4-cyano-2-fluorobenzyl)oxy)-3-fluoropyridin-2-yl)-2,5-difluorobenzyl)-1-(4,4-dimethyltetrahydrofuran-3-yl)-4-fluoro-1H-benzo[d]imidazole-6-carboxylic acid]"
10,0.093 nM,"COCCn1c(Cc2cc(F)c(-c3cccc(OCc4ccc(Cl)cc4)n3)cc2F)nc2c(F)cc(C(=O)O)cc21 [Example 386, 2-(4-(6-((4-chlorobenzyl)oxy)pyridin-2-yl)-2,5-difluorobenzyl)-4-fluoro-1-(2-methoxyethyl)-1H-benzo[d]imidazole-6-carboxylic acid]"
11,0.079 nM,"CC1(C)COC[C@H]1n1c(Cc2cc(F)c(-c3cccc(OCc4ccc(F)cc4)n3)cc2F)nc2ccc(C(=O)O)cc21 [Example 360, (S)-2-(2,5-difluoro-4-(6-((4-fluorobenzyl)oxy)pyridin-2-yl)benzyl)-1-(4,4-dimethyltetrahydrofuran-3-yl)-1H-benzo[d]imidazole-6-carboxylic acid]"
12,0.056 nM,"CC1(C)COC[C@H]1n1c(Cc2cc(F)c(-c3cccc(OCc4ccc(C#N)cc4)n3)cc2F)nc2c(F)cc(C(=O)O)cc21 [Example 376, (S)-2-(4-(6-((4-cyanobenzyl)oxy)pyridin-2-yl)-2,5-difluorobenzyl)-1-(4,4-dimethyltetrahydrofuran-3-yl)-4-fluoro-1H-benzo[d]imidazole-6-carboxylic acid]"
13,0.042 nM,"CC1(C)COC[C@H]1n1c(Cc2ccc(-c3ccc(F)c(OCc4ccc(C#N)cc4)n3)cc2F)nc2ccc(C(=O)O)cc21 [Example 370, (S)-2-(4-(6-((4-cyanobenzyl)oxy)-5-fluoropyridin-2-yl)-2-fluorobenzyl)-1-(4,4-dimethyltetrahydrofuran-3-yl)-1H-benzo[d]imidazole-6-carboxylic acid]"
